The substances below were run against FIXa (Homo sapiens, UniProt P00740) (assay: FXa generation assay with human FIXa). Conditions: FXa generation assay using human FIXa; class symbols.
FIXa, sequence (P00740 47-191 limits assumed): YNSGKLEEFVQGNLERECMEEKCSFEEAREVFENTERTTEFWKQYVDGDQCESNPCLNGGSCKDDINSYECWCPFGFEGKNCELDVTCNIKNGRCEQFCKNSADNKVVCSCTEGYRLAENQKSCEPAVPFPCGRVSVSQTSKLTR
FIXa, sequence (P00740 227-461 limits assumed): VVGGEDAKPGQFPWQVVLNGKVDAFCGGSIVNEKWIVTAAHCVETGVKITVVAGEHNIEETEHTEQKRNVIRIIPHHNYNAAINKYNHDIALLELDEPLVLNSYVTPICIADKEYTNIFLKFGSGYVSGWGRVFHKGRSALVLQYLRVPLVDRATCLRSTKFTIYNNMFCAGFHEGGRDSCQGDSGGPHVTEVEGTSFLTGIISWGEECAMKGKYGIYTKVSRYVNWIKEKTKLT
Type: biochemical
Set-up: purchased Haematologic Technologies
Text: FXa generation was utilized to assess the capability of the compounds of the present disclosure to enhance the catalytic activities of FIXa and/or FVIIa.
To measure the catalytic activity of FIXa, FIXa was mixed with FX and phospholipids in the presence of calcium chloride. Under these conditions FIXa cleaves the zymogen FX into the active form FXa.
The generation of FXa is monitored by the change in absorbance of the reaction at 405 nm due to the presence of a cleavable FXa chromogenic substrate (S-2765; Z-D-Arg-Gly-Arg-pNA; cleavage of p-nitroaniline). […] The kit contains all the FXa generation components, however, FIXa and FX obtained from this kit are from a bovine origin and were replaced with purified human FIXa or human FVIIa and human FX (Haematologic Technologies).
The assay was also modified to enhance the screening throughput. Instead of the sequential addition, all the assay components were mixed and added simultaneously to the purified compound to be assayed. A 125 μl reaction mix of the assay components was prepared in the buffer supplied by the manufacturer (50 mM Tris 7.3, and 1% BSA). […] The reaction mix (125 ul) was then added to 25 ul of compound diluted in water in a Costar-3651 flat bottom 96-well plate. […] The absorbance was monitored over a period of 1 hour at 405 nm using a plate reader (Synergy 2, Biotek).
The 405 nm absorbance data were then analyzed to obtain the slope of the first derivative which reflects the rate of change in absorbance. The first derivative slope data for each compound concentration were plotted against the compound concentration and fitted to a four-parameter equation to obtain the EC50 and Vmax values for each compound tested.
For HDSLDQLTCLASVCQLASMGAR, the Vmax was “(+) ((+)<1)”.
For KLTCLASYCWLK, the Vmax was “(+) ((+)<1)”.
In the case of RFQTTQLTCLGSASCLFNLSVR, the Vmax is reported as “(+) ((+)<1)”.
In the case of HGLADRLTCLSSDCWLQPFGTS, the Vmax is reported as “(+) ((+)<1)”.
GSCRDQLTCLSSDRWQFFRRVS was tested, and the Vmax was “(+) ((+)<1)”.
SGGSGKLTCLASYCWPFGSQVR was tested, and the Vmax was “(+) ((+)<1)”.
With SISGQQLTCRASHCWLNLPWHS the Vmax was “(+) ((+)<1)”.
For QQRQIKMSCLASYCWLFGSIPW, the EC50 was 500 to 1000 nM and the Vmax was “(++) ((++) 1-2)”.
In the case of RGRSAKLRCLASYCWLFFGVIL, the Vmax is reported as “(+++) ((+++)>2)”.
For KLTCLGSYCWLF, the Vmax was “(+++) ((+++)>2)”.
For QLPCLASYCGLF, the Vmax was “(+) ((+)<1)”.
In the case of GASSDKLTCRTRHCSMFQPLSV, the Vmax is reported as “(+) ((+)<1)”.
For QQTCQASQCQLF, the Vmax was “(+) ((+)<1)”.
With LLHAQKLSCLASYCWVFDAEWD the Vmax was “(+) ((+)<1)”.
With NGGMQKPACLASQCWLFANPLP the Vmax was “(++) ((++) 1-2)”.
With FPIQHKLTCLSSDCWLFPSHSY the Vmax was “(+) ((+)<1)”.
In the case of AWPYHKPTCLASQCWQFLAQGS, the Vmax is reported as “(+) ((+)<1)”.
For KLTCLATYCWLF, the Vmax was “(++) ((++) 1-2)”.
In the case of LLQIPNLTCLGSYCWLDNGVYA, the Vmax is reported as “(+) ((+)<1)”.
For VARASKVECLASYCQLFVGGEV, the Vmax was “(+) ((+)<1)”.
In the case of KLKCLSSECQLL, the Vmax is reported as “(+) ((+)<1)”.
In the case of KLTCLASYCLLF, the EC50 is reported as 500 to 1000 nM and the Vmax is reported as “(+++) ((+++)>2)”.
VSGTGRLTCVASYCWMFQLGIF was tested, and the Vmax was “(++) ((++) 1-2)”.
For RSQGRKLTCLASYCWLFLVVHR, the Vmax was “(++) ((++) 1-2)”.
With KLTCLASQCWLF the Vmax was “(+++) ((+++)>2)”.
In the case of APPGGKRMCLVSGCQLFPWSAS, the Vmax is reported as “(+) ((+)<1)”.
For SRQSDKPTCLAISCSLLTSNVR, the Vmax was “(+) ((+)<1)”.
RGRSAKLRCLASYCWLFFTVIL was tested, and the Vmax was “(+++) ((+++)>2)”.
With SCVKHELKCLSSDSRLFSAVQR the Vmax was “(+) ((+)<1)”.
In the case of KLTCLVSYCWLF, the EC50 is reported as 500 to 1000 nM and the Vmax is reported as “(+++) ((+++)>2)”.
For RRCPGKLQALASYCWLFWTGIA, the Vmax was “(+++) ((+++)>2)”.
In the case of SGRGGKLTCQASFCQLFGNGLS, the Vmax is reported as “(++) ((++) 1-2)”.
MEGTRQPTCLASYCSPFQYVAP was tested, and the Vmax was “(+) ((+)<1)”.
In the case of TLTCRASYCQLF, the Vmax is reported as “(+) ((+)<1)”.
In the case of NLTGRASYGWLP, the Vmax is reported as “(+) ((+)<1)”.
With YARDSTLTCQARTCQLVDYLGP the Vmax was “(+) ((+)<1)”.
In the case of KLTCLASYCWYF, the Vmax is reported as “(+++) ((+++)>2)”.
In the case of GCSSDKLTARTRHCSMFQPLSV, the Vmax is reported as “(+) ((+)<1)”.
KLKCLASYCWLF was tested, and the EC50 was 500 to 1000 nM and the Vmax was “(++++) ((++++)>3)”.
With GIQGSEVACRASFCRLFEQGHV the Vmax was “(+) ((+)<1)”.
QEQPAKLTCRGSYCWLFKRGDQ was tested, and the Vmax was “(+) ((+)<1)”.
With LRTQPKVTGLASCSGLVNCSRD the Vmax was “(+) ((+)<1)”.
SGFGMKLTCLASYCGLFQGEIG was tested, and the Vmax was “(+) ((+)<1)”.
In the case of KLTCRASYCQLF, the Vmax is reported as “(+++) ((+++)>2)”.
In the case of DAGPNKLRCLASYCQLFGGGHA, the Vmax is reported as “(+) ((+)<1)”.
For QGQARKLACLASYCWLFPSSAG, the Vmax was “(+) ((+)<1)”.
With QDGDGKLTCRASYCRRFLVGVH the Vmax was “(+) ((+)<1)”.
For GDSGRKLSCLGSYCWLSVQFMA, the Vmax was “(++) ((++) 1-2)”.
For RQLWNKLTCLASYCALIGLSGT, the Vmax was “(++) ((++) 1-2)”.
With HQQRRKLTCLAGYCWLFVLGPS the Vmax was “(+++) ((+++)>2)”.
GGALQQLTCPASYCWLFPMEHS was tested, and the Vmax was “(+) ((+)<1)”.
For HLGSPKLTCGASQCWLLNHEVS, the Vmax was “(+) ((+)<1)”.

Same assay, conditions: FXa generation assay using human FIXa; numeric bounds
Work on WVPQWKVTCLASCSRLFHGFDA yielded a Vmax greater than 1.5.
With GASGRRRTCVASYCLLFQSGLP the Vmax was greater than 0.1.
RYQRARLTCLASYCGLLFSMSA showed a Vmax greater than 0.5.
With LRQRLAKTCVASYCWLFSLVAS the Vmax was greater than 1.5.
With RCAQSRLPWLVSYCWLFSPYGM the Vmax was greater than 1.5.
HYARVQLRCLDGYCWLLTKSRM showed a Vmax greater than 2.5.
Work on KKTCVASFCQMI yielded a Vmax greater than 4.
In the case of EGRRDKLTCLASYCWLVGHGQH, the Vmax is reported as greater than 0.3.

Same assay, conditions: FXa generation assay, 10 nM hFIXa, 100 nM hFX; class symbols
With “PRIrTVGPGSrSASGKSTCLASYCWLFWTGIA [Compound 24]” the Vmax was “(++++) ((++++)>3)”.

From patent US9486507B2, “Pro-coagulant compounds and methods of use thereof” (priority 2011, dated 2016)
